“And” between values parts separate entries of the source, which are not always exact repeats. Equal entries are not always repeated. Where two headings read alike, the source gives them in different places.
How the values were obtained:
[1] = molecular target: SARS‐CoV‐2 M^pro (Severe acute respiratory syndrome coronavirus 2, UniProt P0DTD1); assay: SARS‐CoV‐2 main protease enzymatic assay (FRET inhibitor screening kit); assay type: biochemical; settings: for inhibition at 5 µM: read-out: Inhibitionrate at @5μM
[2] = tested on: SARS‐CoV‐2; assay: microbe, parasite or virus in culture; assay type: cell-based
[3] = tested on: SARS‐CoV‐2 (hCoV‐19/Korea/KCDC06/2020, wild type); assay: microbe, parasite or virus in culture; assay type: cell-based
[4] = in vitro; settings: African green monkey
[5] = in vitro; settings: human
[6] = cytotoxicity; cited from earlier work
[7] = tested on: SARS-CoV-2 M^pro; settings: cited from earlier work
[8] = cited from earlier work
[9] = tested on: SARS‐CoV‐2; settings: Vero E6; cited from earlier work
[10] = Severe acute respiratory syndrome coronavirus 2, Vero cells, with CP‐100356, read-out: EC50 ± SD, Vero cells, with P‐gp inhibitor
[11] = Severe acute respiratory syndrome coronavirus 2, Vero cells, without CP‐100356, read-out: EC50 ± SD, Vero cells, without P‐gp inhibitor
[12] = Calu‐3 cells, without CP‐100356, read-out: EC50 ± SD, Calu‐3 cells, without P‐gp inhibitor
[13] = Severe acute respiratory syndrome coronavirus 2, Calu-3, Calu‐3 cells, with CP‐100356, read-out: EC50 ± SD, Calu‐3 cells, with P‐gp inhibitor
[14] = Severe acute respiratory syndrome coronavirus 2, Calu-3, Calu‐3 cells, without CP‐100356, read-out: EC50 ± SD, Calu‐3 cells, without P‐gp inhibitor
[15] = Severe acute respiratory syndrome coronavirus 2, Calu-3, Calu‐3 cells, racemate, enantiomers and […] measured in the same system, read-out: EC50, anti‐SARS‐CoV‐2 activity in Calu‐3 cells (Figure 3B)

SMILES	IC50 [1]	inhibition of M^pro enzymatic activity, first round of screening [1] [%]	inhibition at 5 µM [1] [%]	EC50 [2, 10] [µM]	EC50 [2, 11] [µM]	EC50 [3, 13] [µM]	EC50 [3, 14] [µM]	CC50 at 2 day [4] [µM]	CC50 at 2 day ([5]; CC50, Calu‐3 cells, MTT assay) [µM]	further results
Cc1cncc(C(=O)N2C[C@H]3CC[C@@H](C2)N3C(c2cccc(F)c2)c2cccc(F)c2)c1 [AA‐625, reference compound]	0.9 µM and 0.904 µM	57	87.9	2.02 ± 0.076	2.05 ± 0.056	< 0.01	0.15	43.9 ± 2.94	> 100	EC50 [3, 12]: 0.148 ± 0.007 µM; CC50 at 2 day ([5]; CC50 (Table 3), Calu‐3 cells): 42.9 ± 0.414 µM; CC50 [6]: 22.5 µM
O=C(c1cccnc1)N1CCN(C(c2cccc(F)c2)c2cn(CCc3ccsc3)nn2)CC1 (centres unmarked) [Compound C4N17]		86	72.3	2.46 ± 0.314	2.74 ± 0.11	0.88 ± 0.109	1.85 ± 0.139	> 100		IC50 ([1]; purified compounds, FRET assay): 1.87 ± 0.013 µM; CC50 at 2 day [5]: > 100 µM
O=C(c1cccnc1)N1CCN(C(c2cccc(F)c2)c2cn(CCN3C(=O)c4ccccc4C3=O)nn2)CC1 (centres unmarked) [Compound C4N21]		82	80.2	> 10	> 69.8	4.02 ± 0.566	74.4 ± 36.3	69.8 ± 1.05		IC50 ([1]; purified compounds, FRET assay): 1.3 ± 0.017 µM; CC50 at 2 day [5]: > 100 µM
Cc1cncc(C(=O)N2C[C@H]3CC[C@@H](C2)N3C(c2cccc(F)c2)c2cn(Cc3cccc([N+](=O)[O-])c3)nn2)c1 (some centres unmarked) [Compound C5N5]	1.23 ± 0.001 µM	93	79.2	1.85 ± 0.526	1.79 ± 0.021	2.56 ± 0.086	2.86 ± 0.395	> 100	> 100	
Cc1cncc(C(=O)N2C[C@H]3CC[C@@H](C2)N3C(c2cccc(F)c2)c2cn(Cc3ccc([N+](=O)[O-])cc3)nn2)c1 (some centres unmarked) [Compound C5N6]	2.5 ± 0.013 µM	88	68.8	1.74 ± 0.238	1.83 ± 0.03	1.05 ± 0.014	< 1	> 100	> 100	EC50 [3, 12]: 0.767 ± 0.156 µM
Cc1cncc(C(=O)N2C[C@H]3CC[C@@H](C2)N3C(c2cccc(F)c2)c2cn(CCc3ccccc3)nn2)c1 (some centres unmarked) [Compound C5N16]	0.283 ± 0.018 µM	99	93	1.89 ± 0.524	2 ± 0.021	0.08 ± 0.002		> 100	> 100	
Cc1cncc(C(=O)N2C[C@H]3CC[C@@H](C2)N3[C@@H](c2cccc(F)c2)c2cn(CCc3ccsc3)nn2)c1 [Compound C5N17A]	3.18 µM		53.2							EC50 [3, 15]: 5.95 µM; CC50 at 2 day ([5]; CC50, column 9, after the Calu-3 EC50 columns): > 100 µM
Cc1cncc(C(=O)N2C[C@H]3CC[C@@H](C2)N3C(c2cccc(F)c2)c2cn(CCc3ccsc3)nn2)c1 (some centres unmarked) [Compound C5N17]	0.177 ± 0.016 µM	101	98.7	0.363 ± 0.029	1.57 ± 0.131	0.028 ± 0.002	0.166 ± 0.011	> 100	> 100	EC50 [3, 15]: 0.2 ± 0.027 µM; CC50 at 2 day ([5]; CC50 (Table 3), Calu‐3 cells): > 100 µM
Cc1cncc(C(=O)N2C[C@H]3CC[C@@H](C2)N3C(c2cccc(F)c2)c2cn(CCN3C(=O)c4ccccc4C3=O)nn2)c1 (some centres unmarked) [Compound C5N21]	0.15 ± 0.004 µM	100	99.5	1.38 ± 0.119	16.2 ± 0.41	0.259 ± 0.043	< 1	> 100	> 100	EC50 [3, 12]: 0.591 ± 0.011 µM
COC(=O)CCCn1cc(C(c2cccc(F)c2)N2[C@@H]3CC[C@H]2CN(C(=O)c2cncc(C)c2)C3)nn1 (some centres unmarked) [Compound C5N39]	0.253 ± 0.01 µM	96	87.6	1.6 ± 0.249	1.87 ± 0.27	0.253 ± 0.026	< 1	> 100	> 100	EC50 [3, 12]: 0.899 ± 0.312 µM
Cc1cncc(C(=O)N2C[C@H]3CC[C@@H](C2)N3C(c2cccc(F)c2)c2cn(C[S+]([O-])c3ccccc3)nn2)c1 (some centres unmarked) [Compound C5N41]	0.243 ± 0.011 µM	100	92.3	2.27 ± 0.089	3.67 ± 0.513	0.097 ± 0.005	1.78 ± 0.001	> 100	> 100	
Cc1cncc(C(=O)N2C[C@H]3CC[C@@H](C2)N3C(c2cccc(F)c2)c2cn(CS(=O)(=O)c3ccccc3)nn2)c1 (some centres unmarked) [Compound C5N42]	0.196 ± 0.009 µM	101	96.2	3.05 ± 0.206	3.68 ± 0.952	0.133 ± 0.019	1.77 ± 0.055	> 100	> 100	
Cc1cncc(C(=O)N2C[C@H]3CC[C@@H](C2)N3C(c2cccc(F)c2)c2cn(Cc3ccc(S(C)(=O)=O)cc3)nn2)c1 (some centres unmarked) [Compound C5N50]	2.4 ± 0.1 µM	90	69	6.57 ± 0.43	36.1 ± 1.38	2.9 ± 0.263	17 ± 0.778	> 100	> 100	
CNC(=O)Cn1cc(C(c2cccc(F)c2)N2[C@@H]3CC[C@H]2CN(C(=O)c2cncc(C)c2)C3)nn1 (some centres unmarked) [Compound C5N57]	0.58 ± 0.005 µM	96	85.1	> 10	> 100	2.33 ± 0.066	4.04 ± 0.986	> 100	> 100	
Cc1cncc(C(=O)N2C[C@H]3CC[C@@H](C2)N3C(c2cccc(F)c2)c2cn(CC(N)=O)nn2)c1 (some centres unmarked) [Compound C5N58]	0.151 ± 0.006 µM	99	100	1.39 ± 0.171	> 100	0.337	4.94 ± 0.687	> 100	> 100	EC50 ([3]; Calu‐3 cells, with CP‐100356, read-out: EC50 ± SD, Calu‐3 cells, with P‐gp inhibitor): 0.338 ± 0.056 µM
Cc1cncc(C(=O)N2C[C@H]3CC[C@@H](C2)N3C(c2cccc(F)c2)c2cn(Cc3cccc(F)c3)nn2)c1 (some centres unmarked) [Compound C5N64]	1.23 ± 0.1 µM	93	79.9	2.86 ± 0.131	4.2 ± 0.738	0.479 ± 0.026	2.94 ± 0.124	> 100	> 100	
O=C(c1cccnc1)N1C[C@H]2CC[C@@H](C1)N2C(c1cccc(F)c1)c1cn(CCc2ccsc2)nn1 (some centres unmarked) [Compound C6N17]	0.3 ± 0.012 µM	90	91.7							
O=C(c1cccnc1)N1C[C@H]2CC[C@@H](C1)N2C(c1cccc(F)c1)c1cn(CCN2C(=O)c3ccccc3C2=O)nn1 (some centres unmarked) [Compound C6N21]	0.2 ± 0.016 µM	89	95.1							
Cn1cnc(Cn2c(=O)[nH]/c(=N\c3cc4cn(C)nc4cc3Cl)n(Cc3cc(F)c(F)cc3F)c2=O)n1 [Ensitrelvir, reference compound]								> 100	> 100	EC50 ([2]; Severe acute respiratory syndrome coronavirus 2, Vero, read-out: EC50 ± SD, Vero cells, with P‐gp inhibitor): < 0.046 µM; EC50 ([2]; Severe acute respiratory syndrome coronavirus 2, Vero, read-out: EC50 ± SD, Vero cells, without P‐gp inhibitor): 0.165 ± 0.015 µM; EC50 ([3]; Severe acute respiratory syndrome coronavirus 2, Calu-3, read-out: EC50 ± SD, Calu‐3 cells, with P‐gp inhibitor): < 0.046 µM; EC50 ([3]; Severe acute respiratory syndrome coronavirus 2, Calu-3, read-out: EC50 ± SD, Calu‐3 cells, without P‐gp inhibitor): 0.11 µM; EC50 ([3]; read-out: EC50 ± SD, Calu‐3 cells, without P‐gp inhibitor): 0.112 ± 0.011 µM
O=C(NCc1cccs1)C1CN(C(=O)c2cccnc2)CCN1c1ccc(Cl)c(Cl)c1 (centres unmarked) [GC‐14, reference compound]	0.8 µM and 0.75 µM	98		3.42 ± 0.443		0.755 ± 0.046	1.42 ± 0.057		> 100	IC50 [7]: 0.4 µM; half‐life [8]: 1.72 h; oral bioavailability [8]: 7.2%; EC50 [9]: 1.1 µM

Reference: publication PMC11578313, “Miniaturized Modular Click Chemistry‐enabled Rapid Discovery of Unique SARS‐CoV‐2 M^pro Inhibitors With Robust Potency and Drug‐like Profile” (Advanced Science, 2024)
